Columns and labels:
NEP enzyme = NEP enzyme (UniProt P08473); assay: In vitro NEP enzyme inhibition assay; format: biochemical; details: fluorogenic peptide substrate; human or rat NEP not given
Procedure: The inhibitory activities of compounds at human and rat NEP and human ACE were determined using in vitro assays as described below.
Rat NEP was prepared from the kidneys of adult Sprague Dawley rats. Whole kidneys were washed in cold PBS and brought up in ice-cold lysis buffer (1% Triton X-114, 150 mM NaCl, 50 mM Tris pH 7.5; Bordier (1981) J. Biol. Chem. 256:1604-1607) in a ratio of 5 mL of buffer for every gram of kidney. Samples were homogenized using a polytron hand held tissue grinder on ice. Homogenates were centrifuged at 1000×g in a swinging bucket rotor for 5 minutes at 3° C. The pellet was resuspended in 20 mL of ice cold lysis buffer and incubated on ice for 30 minutes. […] Protein concentrations were quantitated using a BCA detection system with BSA as a standard. […]
The assays were performed in 384-well white opaque plates at room temperature using the respective fluorogenic peptides at a concentration of 10 μM in assay buffer (50 mM Tris/HCl at 25° C., 100 mM NaCl, 0.01% Tween-20, 1 μM Zn, 0.025% BSA). […] The rat NEP enzyme preparation was used at a concentration that yielded quantitative proteolysis of 3 μM of Mca-RRL within 20 minutes at room temperature.
Assays were started by adding 25 μL of enzyme to 12.5 μL of test compound at 12 concentrations ([…]). […] Plates were read on a fluorometer with excitation and emission wavelengths set to 320 nm and 405 nm, respectively. […]

human AT1 receptor = biological target: T1, human AT1 receptor (Homo sapiens, UniProt P30556); assay: AT1 radioligand binding assay; details: [Eu]AngII displacement, membranes of CHO-K1 cells expressing human AT1; read-out: pKi at the AT1 receptor (converted)
T1 construct: expressed in transfected cells; membranes
T1 sequence (P30556 1-359): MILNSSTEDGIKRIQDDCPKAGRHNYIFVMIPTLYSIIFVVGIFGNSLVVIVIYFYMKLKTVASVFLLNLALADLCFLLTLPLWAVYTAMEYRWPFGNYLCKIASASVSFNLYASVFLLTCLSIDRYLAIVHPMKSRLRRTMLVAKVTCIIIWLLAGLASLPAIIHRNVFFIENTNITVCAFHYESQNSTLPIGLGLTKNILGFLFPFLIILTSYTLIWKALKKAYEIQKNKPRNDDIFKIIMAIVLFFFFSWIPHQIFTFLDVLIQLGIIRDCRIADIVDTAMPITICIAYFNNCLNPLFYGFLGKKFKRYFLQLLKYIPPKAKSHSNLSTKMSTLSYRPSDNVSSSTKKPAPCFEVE
Procedure: These in vitro assays were used to assess the ability of test compounds to bind to the AT1 and the AT2 receptors.
Chinese hamster ovary (CHO-K1) derived cell lines stably expressing the cloned human AT1 or AT2 receptors, respectively, were grown in HAM's-F12 medium supplemented with 10% fetal bovine serum, 10 μg/ml penicillin/streptomycin, and 500 μg/ml geneticin in a 5% CO2 humidified incubator at 37° C. AT2 receptor expressing cells were grown in the additional presence of 100 nM PD123,319 (AT2 antagonist). When cultures reached 80-95% confluence, the cells were washed thoroughly in PBS and lifted with 5 mM EDTA. Cells were pelleted by centrifugation and snap frozen in MeOH-dry ice and stored at −80° C. until further use.
For membrane preparation, cell pellets were resuspended in lysis buffer (25 mM Tris/HCl pH 7.5 at 4° C., 1 mM EDTA, and one tablet of Complete Protease Inhibitor Cocktail Tablets with 2 mM EDTA per 50 mL buffer (Roche cat.#1697498, Roche Molecular Biochemicals, Indianapolis, Ind.)) and homogenized using a tight-fitting Dounce glass homogenizer (10 strokes) on ice. The homogenate was centrifuged at 1000×g, the supernatant was collected and centrifuged at 20,000×g. […] Protein concentration of the membrane suspension was determined by the method described in Bradford (1976) Anal Biochem. 72:248-54. […]

pIC50 for the NEP enzyme (NEP enzyme): greater than or equal to 7.0
Ki (human AT1 receptor): < 100 nM
Compound: CCCC(=O)N(CCNC(=O)C(CS)CC(C)C)Cc1ccc(-c2ccccc2-c2nnn[nH]2)cc1 (centres unmarked) [Example 1, 2-Mercaptomethyl-4-methylpentanoic Acid (2-Butyryl-[2′-(1H-tetrazol-5-yl)biphenyl-4-ylmethyl]aminoethyl)amide]

Source: patent publication US7777077B2, “Dual-acting antihypertensive agents” (Theravance, Inc., priority 2007, dated 2010)
